Experiments:
[1] = In vitro clearance, rat; type: in vitro ADME; details: for CLHEP, rat: in vitro predicted, well-stirred equation without fuplasma/fumic terms; for CLHEP, rat / CLint scaled: rat; for CLint scaled: liver microsomes
[2] = IV pharmacokinetics in SD rat; type: in vivo; details: Sprague-Dawley, plasma
[3] = In vitro clearance, human; type: in vitro ADME; details: for CLHEP, human: in vitro predicted; for CLint scaled: liver microsomes
[4] = Oral pharmacokinetics in rat; type: in vivo
[5] = system: dog M2; assay: Muscarinic subtype selectivity, dog M2; type: cell-based; details: data not shown
[6] = system: human M1-3,5; assay: Muscarinic subtype selectivity, human M1-3,5; type: cell-based; details: read-out: EC50 at human M1-3,5
[7] = system: rat M1-3,5; assay: Muscarinic subtype selectivity, rat M1-3,5; type: cell-based; details: read-out: EC50 at rat M1-3,5
[8] = IV and PO pharmacokinetics in dog; type: in vivo
[9] = system: L-DOPA-induced dyskinesia; details: PD-LID mice and NHPs; cited from earlier work
[10] = system: CYP1A2, CYP2B6, CYP3A4; assay: CYP induction in cryopreserved human hepatocytes; type: in vitro ADME; details: human
[11] = system: CYP 1A2/2B6/3A4; assay: CYP induction in cryopreserved human hepatocytes; type: in vitro ADME; details: 48 hr incubation, enzyme activity readout
[12] = biological target: cyno M4 (Macaca fascicularis, UniProt G7PQB4); assay: ACh CRC fold-shift Ca2+ mobilization and ACh competition binding; type: cell-based, cynomolgus monkey; details: operational model cooperativity; n=3–4
[13] = system: CYP450s (panel); assay: CYP450 inhibition profile; type: in vitro ADME
[14] = system: TA98 and TA100 strains; assay: Mini-Ames assay; details: TA98 and TA100 strains ± S9
[15] = In vitro metabolite identification in cryopreserved hepatocytes; type: in vitro ADME, rat, dog, cynomolgus monkey, human
[16] = system: GABAA receptor; assay: GABAA functional assay; type: biochemical; details: at 10 μM
[17] = system: L-DOPA-induced dyskinesia; details: NHPs, 10 mg/kg IV; cited from earlier work
[18] = Reactive metabolism/bioactivation; type: in vitro ADME; details: human hepatic microsomes
[19] = system: CYP450; assay: Human CYP450 phenotyping; type: in vitro ADME
[20] = system: cyno M2; assay: Muscarinic subtype selectivity, cyno M2; type: cell-based, cynomolgus monkey; details: data not shown
[21] = IV and PO pharmacokinetics in cynomolgus monkey; type: in vivo

In the case of `Cc1nnc2sc(C(=O)NCc3ccc(-c4ccnc(F)c4)cc3)c(N)c2c1C` [8k], the “CLHEP, rat” value [1] is reported as 31.5 mL/min/kg, the CLint scaled [1] is reported as 57.1 mL/min/kg and the clearance [2] is reported as 3.6 mL/min/kg. For the same compound, the “CLHEP, human” value [3] was 17.8 mL/min/kg and the CLint scaled [3] was 19.6 mL/min/kg.

With `Cc1nnc2sc(C(=O)NCc3ccc(-c4cccnc4F)cc3)c(N)c2c1C` [8p, 5-amino-N-(4-(2-fluoropyridine-3-yl)benzyl)-3,4-dimethylthieno[2,3-c] pyridazine-6-carboxamide] the oral bioavailability ([4]; 10 mg/kg solution dose) was 61 % F, the oral bioavailability ([4]; HCl salt of 8p dosed as a suspension) was 54 %F and the “activity at dog M2” value [5] was “inactive”. For the same compound, the EC50 [6] was > 30 µM, the EC50 [7] was > 30 µM and the oral bioavailability ([8]; 3 mg/kg suspension dose of the HCl salt) was 47 %F. For the same compound, the clearance ([8]; plasma, iv) was 5.5 mL/min/kg, the “deficits in synaptic plasticity and behavior” value [9] was “ameliorates deficits in synaptic plasticity and behavior” and the EC50 at 48 h [10] was > 50 µM. The “CYP 1A2/2B6/3A4 induction Emaxs” value [11] was < 2, the “α at cyno M4” value [12] was 28.2 and the “β at cyno M4” value [12] was 2.5. For the same compound, the “CLHEP, rat” value [1] was 46.0 mL/min/kg, the “predicted rat CLhep, revised prediction method” value ([1]; inclusion of binding terms in the well-stirred model) was 0.49 mL/min/kg and the CLint scaled [1] was 134 mL/min/kg. The IC50 [13] was ≥ 11 µM, the mini-Ames mutagenicity [14] was “negative” and the human unique metabolites ([15]; cryopreserved hepatocytes, multiple species) was “no evidence for human unique metabolites”. The “turnover in cryopreserved hepatocytes” value ([15]; rat, dog, cynomolgus monkey, human hepatocytes) was “low turnover”, the “GABAA functional assay activity” value [16] was “no activity” and the “dyskinesia scores and involuntary movements” value [17] was “significantly reduces dyskinesia scores and involuntary movements”. For the same compound, the GSH conjugates [18] was “no significant levels of GSH conjugates”, the clearance [2] was 1.6 mL/min/kg and the “CYPs contributing to metabolism” value [19] was 3A4 (predominant), 2D6, 2C19, 2C9 and 1A2. The “activity at cyno M2” value [20] was “inactive”, the oral bioavailability ([21]; 10 mg/kg solution dose of HCl salt) was 4.7 %F and the clearance ([21]; plasma, iv) was 9.3 mL/min/kg. The “CLHEP, human” value [3] was 14.8 mL/min/kg and the CLint scaled [3] was 19.2 mL/min/kg.

For `Cc1nnc2sc(C(=O)NCc3ccc(-c4ccncc4)cc3)c(N)c2c1C` [8f], the “CLHEP, rat” value [1] was 59.9 mL/min/kg, the CLint scaled [1] was 415 mL/min/kg and the IC50 [13] was < 10 µM. For the same compound, the clearance [2] was 9 mL/min/kg, the “CLHEP, human” value [3] was 15.2 mL/min/kg and the CLint scaled [3] was 20.1 mL/min/kg.

For `Cc1nnc2sc(C(=O)NCc3ccc(-c4ccc(F)nc4)cc3)c(N)c2c1C` [8m], the “CLHEP, rat” value [1] was 37.7 mL/min/kg, the CLint scaled [1] was 81.6 mL/min/kg and the clearance [2] was 1.7 mL/min/kg. For the same compound, the “CLHEP, human” value [3] was 17.1 mL/min/kg and the CLint scaled [3] was 20.2 mL/min/kg.

— publication PMC5508548 (Bioorganic & medicinal chemistry letters, 2017)
